According to article PMC9215129, “An acetyltransferase controls the metabolic flux in rubromycin polyketide biosynthesis by direct modulation of redox tailoring enzymes” (Chemical Science, 2022):

Assays:
GrhO6 [1] = target: T1, GrhO6 (Streptomyces sp. JP95, UniProt Q8KSX5, K57M); test: HPLC assay, 5a/5b formation; type: biochemical; settings: with HyalJ; activity similar to wild type; substrate not named explicitly for the variant
T1 construct: recombinant, purified; group A FAD monooxygenase; acetylated at K5 by HyalJ in some assays

GrhO10 [2] = target: T2, GrhO10 (Streptomyces sp. JP95, UniProt Q8KSW1); test: HPLC, UPLC-HRMS/MS of product […]; type: biochemical; settings: 4a/4b generated in situ by cascade (GrhO5, GrhO1, NADPH); redox form not resolved; low turnover
T2 construct: recombinant from E. coli, Ni-NTA purified (His-tag)
T2 sequence (Q8KSW1 1-249): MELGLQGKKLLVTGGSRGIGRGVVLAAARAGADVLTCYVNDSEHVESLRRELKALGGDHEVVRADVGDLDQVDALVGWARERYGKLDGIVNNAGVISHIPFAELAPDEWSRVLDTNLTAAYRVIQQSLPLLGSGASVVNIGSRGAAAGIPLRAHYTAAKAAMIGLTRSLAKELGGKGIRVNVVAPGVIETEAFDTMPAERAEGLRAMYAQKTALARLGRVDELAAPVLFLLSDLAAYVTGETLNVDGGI

GrhO6 [3] = target: T3, GrhO6 (Streptomyces sp. JP95, UniProt Q8KSX5); test: HPLC time course in cascade; type: biochemical; settings: NADPH, GrhO5, GrhO1, with HyalJ; 4a generated in situ from 3b
T3 construct: recombinant, purified; group A FAD monooxygenase; acetylated at K5 by HyalJ in some assays
T3 sequence (Q8KSX5 1-520): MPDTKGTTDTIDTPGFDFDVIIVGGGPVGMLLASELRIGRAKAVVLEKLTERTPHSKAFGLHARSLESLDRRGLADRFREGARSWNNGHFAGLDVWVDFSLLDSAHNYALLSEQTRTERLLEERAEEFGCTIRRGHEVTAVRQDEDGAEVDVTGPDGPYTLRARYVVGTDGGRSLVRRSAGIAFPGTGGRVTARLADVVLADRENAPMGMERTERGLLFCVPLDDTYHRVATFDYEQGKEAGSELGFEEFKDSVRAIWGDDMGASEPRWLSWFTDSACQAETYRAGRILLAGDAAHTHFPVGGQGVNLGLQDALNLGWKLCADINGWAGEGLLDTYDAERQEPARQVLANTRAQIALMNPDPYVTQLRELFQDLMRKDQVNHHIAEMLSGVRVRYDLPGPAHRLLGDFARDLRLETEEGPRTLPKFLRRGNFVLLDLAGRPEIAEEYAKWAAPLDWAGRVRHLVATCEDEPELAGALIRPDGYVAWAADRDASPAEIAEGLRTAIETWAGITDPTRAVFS

GrhO6 [4] = target: T4, GrhO6 (Streptomyces sp. JP95, UniProt Q8KSX5, K425M); test: HPLC assay, 5a/5b formation; type: biochemical; settings: with HyalJ; activity similar to wild type; substrate not named explicitly for the variant
T4 construct: recombinant, purified; group A FAD monooxygenase; acetylated at K5 by HyalJ in some assays

GrhO6 [5] = target: T3, GrhO6; test: turnover before digest and UPLC-HRMS; type: biochemical; settings: with AcCoA and HyalJ
HyalO10 = target: T5, HyalO10 (Streptomyces hyaluromycini, UniProt Z9NP16K308); test: HPLC coupled cascade assay, 6a/6b formation; type: biochemical; settings: 5a/5b generated in situ (GrhO5, GrhO1, GrhO6, HyalJ, NADPH); redox form not resolved
T5 construct: heterologously produced and purified; hyaluromycin gene cluster, homologue of GrhO10
T5 sequence (Z9NP16K308 1-249): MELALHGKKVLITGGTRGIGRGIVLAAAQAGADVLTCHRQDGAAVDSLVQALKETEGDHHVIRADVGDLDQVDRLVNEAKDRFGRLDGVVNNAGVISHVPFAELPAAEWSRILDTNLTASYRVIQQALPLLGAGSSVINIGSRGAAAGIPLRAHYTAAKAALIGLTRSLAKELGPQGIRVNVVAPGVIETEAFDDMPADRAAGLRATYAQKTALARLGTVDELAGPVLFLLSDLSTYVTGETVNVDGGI

GrhO10 [6] = target: T2, GrhO10; test: HPLC time course of 6b formation; type: biochemical; settings: isolated 5b
HyalJ = target: T6, HyalJ (Streptomyces hyaluromycini, UniProt Z9LXF2D8B5); test: co-purification from E. coli, UPLC-HRMS of released ligand; type: binding; settings: acyl donor
T6 construct: recombinant from E. coli, N-terminal GB1 solubility tag; GNAT, homologue of GrhJ
T6 sequence (Z9LXF2D8B5 1-325): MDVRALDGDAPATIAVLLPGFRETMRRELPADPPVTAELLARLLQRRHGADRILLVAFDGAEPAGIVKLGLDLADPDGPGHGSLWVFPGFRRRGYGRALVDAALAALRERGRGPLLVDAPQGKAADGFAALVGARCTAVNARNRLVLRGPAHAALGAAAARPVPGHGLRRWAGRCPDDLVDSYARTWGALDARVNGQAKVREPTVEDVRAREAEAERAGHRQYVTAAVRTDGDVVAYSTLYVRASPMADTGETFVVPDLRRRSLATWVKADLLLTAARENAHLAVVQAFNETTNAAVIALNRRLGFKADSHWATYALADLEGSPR

GrhO6 [7] = target: T3, GrhO6; test: HPLC enzyme assay; type: biochemical; settings: inhibitor of turnover of 4a(b); 8 produced in situ, its structure only inferred from MS
[8] = equal effect to AcCoA with apo HyalJ

T4 sequence (Q8KSX5 entry or part of it K425M): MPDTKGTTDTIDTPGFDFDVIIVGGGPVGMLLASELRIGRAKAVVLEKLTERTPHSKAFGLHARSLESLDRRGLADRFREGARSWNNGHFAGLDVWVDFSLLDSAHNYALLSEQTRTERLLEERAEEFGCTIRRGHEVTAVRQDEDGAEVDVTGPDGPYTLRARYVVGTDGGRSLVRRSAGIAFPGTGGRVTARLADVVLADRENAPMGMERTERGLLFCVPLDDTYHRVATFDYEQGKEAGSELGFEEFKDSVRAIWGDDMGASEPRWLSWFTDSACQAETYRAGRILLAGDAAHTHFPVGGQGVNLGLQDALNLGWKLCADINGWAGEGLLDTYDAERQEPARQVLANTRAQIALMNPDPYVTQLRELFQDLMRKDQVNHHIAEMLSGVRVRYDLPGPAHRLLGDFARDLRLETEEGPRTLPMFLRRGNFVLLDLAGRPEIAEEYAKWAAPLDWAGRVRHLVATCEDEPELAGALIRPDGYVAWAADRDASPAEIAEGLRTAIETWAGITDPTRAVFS
T1 sequence (Q8KSX5 entry or part of it K57M): as the sequence (Q8KSX5 entry or part of it K425M) above, with K57M, M425K counted along it

COc1cc(O)c2c(O)c3c(c(O)c2c1O)C(=O)OC1(CCc2cc4cc(C)oc(=O)c4c(O)c2O1)C3=O (centres unmarked) [4a, dihydrolenticulone]
HPLC assay, 5a/5b formation (GrhO6 [1]): both were able to mediate the generation of 5a/5b in the presence of HyalJ | HPLC, UPLC-HRMS/MS of product 8 (GrhO10 [2]): ketoreductases are also capable of catalyzing keto reduction of 4a/4b | HPLC time course in cascade (GrhO6 [3]): Compound 4a is then further converted into 5a/5b | HPLC assay, 5a/5b formation (GrhO6 [4]): both were able to mediate the generation of 5a/5b in the presence of HyalJ

COC1=CC(=O)c2c(O)c3c(c(O)c2C1=O)C(=O)OC1(CCc2cc4cc(C)oc(=O)c4c(O)c2O1)C3=O (centres unmarked) [4b, lenticulone]
turnover before digest and UPLC-HRMS (GrhO6 [5]): GrhO6 after turnover of 4b in the presence of AcCoA and HyalJ

COc1cc(O)c2c(O)c3c(c(O)c2c1O)OC1(CCc2cc4cc(C)oc(=O)c4c(O)c2O1)C3=O (centres unmarked) [5a, dihydro-7,8-dideoxy-6-oxo-griseorhodin C]
HPLC coupled cascade assay, 6a/6b formation (HyalO10): When GrhO10 was substituted for HyalO10 in the enzymatic assays, 6a/6b was formed

COC1=CC(=O)c2c(O)c3c(c(O)c2C1=O)OC1(CCc2cc4cc(C)oc(=O)c4c(O)c2O1)C3=O (centres unmarked) [5b, 7,8-dideoxy-6-oxo-griseorhodin C]
HPLC time course of 6b formation (GrhO10 [6]): the enzymatic formation of 6b was clearly observed in the presence of GrhO10

CC(=O)SCCNC(=O)CCNC(=O)[C@H](O)C(C)(C)COP(=O)(O)OP(=O)(O)OC[C@H]1O[C@@H](n2cnc3c(N)ncnc32)[C@H](O)[C@@H]1OP(=O)(O)O [acetyl-CoA]
co-purification from E. coli, UPLC-HRMS of released ligand (HyalJ; acetylates GrhO6 at K5, restores activity of apo HyalJ): which clearly confirmed the presence of AcCoA

COc1cc(O)c2c(O)c3c(c(O)c2c1O)C(=O)OC1(CCc2cc4cc(C)oc(=O)c4c(O)c2O1)C3O (centres unmarked) [compound 8, 8]
HPLC enzyme assay (GrhO6 [7]): GrhO6 showed strongly decreased activity on 4a(b) even in the presence of only small amounts

CC(C(=O)O)C(=O)SCCNC(=O)CCNC(=O)[C@H](O)C(C)(C)COP(=O)(O)OP(=O)(O)OC[C@H]1O[C@@H](n2cnc3c(N)ncnc32)[C@H](O)[C@@H]1OP(=O)(O)O (some centres unmarked) [methylmalonyl-CoA]
co-purification from E. coli, UPLC-HRMS of released ligand (HyalJ; [8]): also with almost identical amounts of propionyl-CoA and methylmalonyl-CoA

CCC(=O)SCCNC(=O)CCNC(=O)[C@H](O)C(C)(C)COP(=O)(O)OP(=O)(O)OC[C@H]1O[C@@H](n2cnc3c(N)ncnc32)[C@H](O)[C@@H]1OP(=O)(O)O [propionyl-CoA]
co-purification from E. coli, UPLC-HRMS of released ligand (HyalJ; [8]): also with almost identical amounts of propionyl-CoA and methylmalonyl-CoA
